Experimental data as given in patent publication US8389503B2, “Steroidal antitubercular compounds” (priority 2011, dated 2013).
In brackets after ≈: the same amount, converted by molar mass.

Legend:
[1] = tested on: Mycobacterium tuberculosis H37Rv (ATCC 27294); test: Primary screen (dose response), Microplate Alamar Blue Assay (MABA), Level-I antituberculosis assay; assay type: cell-based; conditions: M. tuberculosis H37Rv, BACTEC 12B medium, concentration reducing fluorescence 90% relative to controls
Experimental: Primary Screen (Dose Response): Determination of a 90% Inhibitory Concentration (IC90). The initial screen is conducted against Mycobacterium tuberculosis H37Rv (ATCC 27294) in BACTEC 12B medium using the Microplate Alamar Blue Assay (MABA). Compounds are tested in ten 2-fold dilutions, typically from 100 μg/mL to 0.19 μg/mL. The IC90 is defined as the concentration effecting a reduction in fluorescence of 90% relative to controls. This value is determined from the dose-response curve using a curve-fitting program. Any IC90 value of ≦10 μg/mL is considered “Active” for antitubercular activity.

CCCCCCOC(=O)c1ccc(OC2CC[C@@]3(C)C(=CC[C@H]4[C@@H]5CC[C@H]([C@H](C)C=C[C@@H](CC)C(C)C)[C@@]5(C)CC[C@@H]43)C2)cc1 (some centres unmarked) [Compound I, n-hexyl-p-stigmasteryloxy-benzoate]
IC90 (90% inhibitory concentration) [1]: 6.25 µg/mL (≈ 10.1 µM) | CC50 (mammalian cell cytotoxicity) (VERO cells): 79.59 µg/mL (≈ 129 µM)
